Results published in patent publication US20210355066A1 (CymaBay Therapeutics, Inc., priority 2020, published 2021).

Key:
[1] = crystalline form
Excerpt: A weighed aluminum pan configured as the sample pan was placed on the […] side of the cell.

[2] = target: CYP 2C9 (Homo sapiens, UniProt P11712); details: tolbutamide hydroxylation assay; relative to (S)-enantiomer; cited from earlier work
Chain of CYP 2C9 (P11712 whole entry, species assumed): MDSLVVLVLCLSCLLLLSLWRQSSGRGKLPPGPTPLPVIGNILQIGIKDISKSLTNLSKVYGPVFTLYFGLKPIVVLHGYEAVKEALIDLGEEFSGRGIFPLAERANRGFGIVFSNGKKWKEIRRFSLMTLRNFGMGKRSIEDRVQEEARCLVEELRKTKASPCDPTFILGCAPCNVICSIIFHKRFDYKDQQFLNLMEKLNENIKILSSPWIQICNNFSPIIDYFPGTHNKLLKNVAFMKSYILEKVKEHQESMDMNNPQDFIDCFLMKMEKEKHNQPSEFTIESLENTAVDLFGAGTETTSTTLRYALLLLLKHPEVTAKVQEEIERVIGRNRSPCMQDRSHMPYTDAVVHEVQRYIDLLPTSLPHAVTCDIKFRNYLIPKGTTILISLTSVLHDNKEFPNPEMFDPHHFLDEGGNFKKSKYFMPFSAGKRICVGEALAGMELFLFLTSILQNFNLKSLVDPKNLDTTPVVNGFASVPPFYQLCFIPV

2-hydroxy-N,N,N-trimethylethan-1-aminium (2R)-2-(4-chlorophenyl)-2-[3-(trifluoromethyl)phenoxy]acetate [CB-0406 choline salt]
stability to thermal stress [1]: good stability to thermal stress

O=C(O)[C@H](Oc1cccc(C(F)(F)F)c1)c1ccc(Cl)cc1 [CB-0406, (2R)-2-(4-chlorophenyl)-2-[3-(trifluoromethyl)phenoxy]acetic acid]
fold less active as an inhibitor of CYP 2C9 than its (S)-enantiomer [2]: approximately 20 fold
